The test system of experiment [1] is pY705-STAT3 in Peripheral Blood Mononuclear Cells (PBMC). Kind of experiment: MSD-pSTAT-PBMC Assay (pSTAT3, IL-6 stimulated). The note with it: compound 3 hrs, then 10 ng/mL IL-6 for 10 min. It is filed as cell-based, Human. From the text:
Cryopreserved Peripheral Blood Mononuclear Cells (PBMC) are from AllCells. Recombinant Human IL-4 and IL-6 are from Peprotech. Mouse monoclonal anti-STAT3 antibody, rabbit monoclonal anti-pY705-STAT3 antibody, rabbit monoclonal Anti-pY641-STAT6 antibody, and lysis buffer are from Cell Signaling Technology (CST). Mouse monoclonal anti-STAT6 antibody is from BioLegend. Assay plates, blocker, and anti-rabbit secondary antibody are from Meso Scale Discovery (MSD).
Cryopreserved PBMCs were thawed out and allowed to recover overnight in IMDM+10% heat-inactivated FBS prior to plating 50,000 (STAT3) or 25,000 (STAT6) cells per well in 96-well U-bottom tissue culture plates. Cells were treated with compound for 3 hrs, then stimulated with 10 ng/mL IL-6 (STAT3) or 1 ng/mL IL-4 (STAT6) for 10 min. Cells were then spun down and washed with ice-cold PBS prior to lysing the cell pellet with 1× lysis buffer (CST) with 1×HALT protease and phosphatase inhibitor cocktail (Thermo). Lysates were transferred to and incubated overnight at 4° C. with shaking in QuickPlex 96-well high bind assay plates (MSD) pre-coated overnight with 30 μL per well of 0.6 μg/mL mouse monoclonal anti-STAT3 antibody (STAT3) or 2 μg/mL mouse monoclonal anti-STAT6 antibody (STAT6) in 1×PBS, and pre-blocked for 1 hour with 3% Blocker-A (MSD). Captured protein in the assay plates were then washed and probed with 25 μL per well of 0.25 μg/ml rabbit monoclonal anti-pY705-STAT3 antibody (STAT3) or […] rabbit monoclonal Anti-pY641-STAT6 antibody (STAT6) in 1% Blocker-A for 1 hour at room temperature with shaking, then washed and probed with 25 ul per well of 1 ug/ml Sulfo-TAG Labeled Goat Anti-Rabbit Antibody (MSD) in 1% Blocker-A for 1 hour at room temperature with shaking. Assay plates were then washed and 150 μL of 1× Read Buffer-T (MSD) was added to each well prior to reading on an SQ120 MSD Plate Reader. Assay signal from each sample was subtracted by the signal from unstimulated control wells and normalized to DMSO control wells. IC50 values were calculated using Graph Pad Prism Dose-Response Nonlinear Regression with variable slope. For both pSTAT3 and pSTAT6 A=≤100 nM; B=>100-1000 nM; C=>1000-3000 nM; and D=>3 μM.

For experiment [2], the system named is pY641-STAT6 in Peripheral Blood Mononuclear Cells (PBMC). Kind of experiment: MSD-pSTAT-PBMC Assay (pSTAT6, IL-4 stimulated). It is filed as cell-based, Human. The note with it: compound 3 hrs, then 1 ng/mL IL-4 for 10 min. Summed up:
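Phospho-STAT readout used MSD electrochemiluminescence with total STAT3 or STAT6 capture in lysates of cryopreserved human PBMCs. Cells had 3 h compound exposure before a 10 min cytokine pulse: IL-6 10 ng/mL for pSTAT3, IL-4 1 ng/mL for pSTAT6. IC50 came from background-subtracted, DMSO-normalised signal, with categories A≤100 nM up to D>3 μM.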

As a reminder, the IC50 is the concentration that inhibits the measured activity by half. Low values mean higher potency, high ones lower potency. For the compound `CC(=O)N1CCC2CCC(C(=O)N3CC(c4ccccc4)CC34CC4)N2C(=O)C(NC(=O)c2ccc3ccc(C(F)(F)P(=O)(OCCSC(=O)CC(C)C)OCCSC(=O)CC(C)C)cc3c2)C1` [Compound 1, S,S′-(((((7-(((5S,8S,10aR)-3-acetyl-6-oxo-8-(6-phenyl-4-azaspiro[2.4]heptane-4-carbonyl)decahydropyrrolo[1,2-a][1,5]diazocin-5-yl)carbamoyl)naphthalen-2-yl)difluoromethyl)phosphoryl)bis(oxy))bis(ethane-2,1-diyl)) bis(3-methylbutanethioate)], the half-maximal inhibitory concentration (IC50) is over 3000 nM in experiment [1] and 100 to 1000 nM in experiment [2].

For `CNC(=O)C[C@@H](Cc1ccc(OC)cc1)NC(=O)[C@@H]1CC[C@@H]2CCN(C(=O)c3n[nH]c4ccc(C)cc34)C[C@H](NC(=O)c3ccc4ccc(C(F)(F)P(=O)(O)O)cc4c3)C(=O)N21` [Compound 239, (difluoro(7-(((5S,8S,10aR)-8-(((R)-1-(4-methoxyphenyl)-4-(methylamino)-4-oxobutan-2-yl)carbamoyl)-3-(5-methyl-1H-indazole-3-carbonyl)-6-oxodecahydropyrrolo[1,2-a][1,5]diazocin-5-yl)carbamoyl)naphthalen-2-yl)methyl)phosphonic acid], the IC50 in experiment [1] (Homo sapiens) and in experiment [2] (Homo sapiens) was 100 to 1000 nM in each case.

In the case of `CCCC(=O)SCCOP(=O)(OCCSC(=O)CCC)C(F)(F)c1ccc2sc(C(=O)N[C@H]3CN(C(C)=O)CC[C@H]4CC[C@@H](C(=O)N(C)c5ccccc5)N4C3=O)cc2c1` [Compound 280, S,S′-(((((2-(((5S,8S, 10aR)-3-acetyl-8-(methyl (phenyl)carbamoyl)-6-oxodecahydro-pyrrolo[1,2-a][1,5]diazocin-5-yl)carbamoyl)benzo[b]thiophen-5-yl)difluoro-methyl)phos-phoryl)bis (oxy))bis (ethane-2,1-diyl))di-butanethioate], the IC50 is 1000 to 3000 nM in experiment [1] (Homo sapiens) and 100 to 1000 nM in experiment [2] (Homo sapiens).

For the compound `COCCOC(=O)OCOP(=O)(OCOC(=O)OCCOC)C(F)(F)c1ccc2sc(C(=O)N[C@H]3CN(C(C)=O)CC[C@H]4CC[C@@H](C(=O)N(C)c5ccccc5)N4C3=O)cc2c1` [Compound 283, ((((2-(((5S,8S, 10aR)-3-acetyl-8-(methyl (phenyl)carbamoyl)-6-oxodecahydro-pyrrolo[1,2-a][1,5]diazocin-5-yl)carbamoyl)benzo[b]thiophen-5-yl)difluoro-methyl)phos-phoryl)bis(oxy)) bis(methylene) bis(2-methoxyethyl) bis(carbonate)], the IC50 in experiment [1] (Homo sapiens) was over 3000 nM; in experiment [2] (Homo sapiens) it was 1000 to 3000 nM.

For `CC(=O)N1CC[C@H]2CC[C@@H](C(=O)N(C)c3ccccc3)N2C(=O)[C@@H](NC(=O)c2cc3cc(C(F)(F)P(=O)(OCOC(=O)OCC(C)C)OCOC(=O)OCC(C)C)ccc3s2)C1` [Compound 284, ((((2-(((5S,8S, 10aR)-3-acetyl-8-(methyl (phenyl)carbamoyl)-6-oxodecahydro-pyrrolo[1,2-a][1,5]diazocin-5-yl)carbamoyl)benzo[b]thiophen-5-yl)difluoro-methyl)phos-phoryl)bis(oxy)) bis(methylene) diisobutyl bis(carbonate)], the figures for the IC50 in experiment [1] (Homo sapiens) and in experiment [2] (Homo sapiens) were 100 to 1000 nM and at most 100 nM, respectively.

Consider `CCCOC(=O)OCOP(=O)(OCOC(=O)OCCC)C(F)(F)c1ccc2sc(C(=O)N[C@H]3CN(C(C)=O)CC[C@H]4CC[C@@H](C(=O)N(C)c5ccccc5)N4C3=O)cc2c1` [Compound 286, ((((2-(((5S, 8S,10aR)-3-acetyl-8-(methyl (phenyl)carbamoyl)-6-oxodecahydro-pyrrolo[1,2-a][1,5]diazocin-5-yl)carbamoyl)benzo[b]thiophen-5-yl)difluoro-methyl)phosphoryl)bis(oxy)) bis(methylene) dipropyl bis(carbonate)], for which the IC50 in experiment [1] (Homo sapiens) and in experiment [2] (Homo sapiens) was 100 to 1000 nM throughout.

In the case of `COCC(C)(C)OC(=O)OCOP(=O)(OCOC(=O)OC(C)(C)COC)C(F)(F)c1ccc2sc(C(=O)N[C@H]3CN(C(C)=O)CC[C@H]4CC[C@@H](C(=O)N(C)c5ccccc5)N4C3=O)cc2c1` [Compound 287, ((((2-(((5S, 8S,10aR)-3-acetyl-8-(methyl (phenyl)carbamoyl)-6-oxodecahydro-pyrrolo[1,2-a][1,5]diazocin-5-yl)carbamoyl)benzo[b]thiophen-5-yl)difluoro-methyl)phosphoryl)bis(oxy)) bis(methylene) bis(1-methoxy-2-methylpropan-2-yl) bis(carbonate)], the IC50 in experiment [1] (Homo sapiens) and in experiment [2] (Homo sapiens) was over 3000 nM each time.

Take `COC(=O)[C@@H]1CCCN1C(=O)OCOP(=O)(OCOC(=O)N1CCC[C@H]1C(=O)OC)C(F)(F)c1ccc2sc(C(=O)N[C@H]3CN(C(C)=O)CC[C@H]4CC[C@@H](C(=O)N(C)c5ccccc5)N4C3=O)cc2c1` [Compound 288, O′1,O1-(((((2-(((5S, 8S,10aR)-3-acetyl-8-(methyl (phenyl)carbamoyl)-6-oxodecahydro-pyrrolo[1,2-a][1,5]diazocin-5-yl)carbamoyl)benzo[b]thiophen-5-yl)difluoro-methyl)phos-phoryl)bis(oxy))bis (methylene)) 2,2′-dimethyl (2S,2′S)-bis (pyrrolidine-1,2-dicarboxylate)]: the IC50 in experiment [1] (Homo sapiens) and in experiment [2] (Homo sapiens) was over 3000 nM throughout.

As to `CC(=O)N1CC[C@H]2CC[C@@H](C(=O)N(C)c3ccccc3)N2C(=O)[C@@H](NC(=O)c2cc3cc(C(F)(F)P(=O)(OCCSC(=O)C(C)(C)C)Oc4ccccc4)ccc3s2)C1` (stereo partly drawn) [Compound 289, S-(2-((((2-(((5S,8S, 10aR)-3-acetyl-8-(methyl (phenyl)carbamoyl)-6-oxodecahydro-pyrrolo[1,2-a][1,5]diazocin-5-yl)carbamoyl)benzo[b]thiophen-5-yl)difluoro-methyl) (phenoxy)phosphoryl)oxy)ethyl)2,2-dimethylpro-panethioate], the IC50 in experiment [1] (Homo sapiens) and in experiment [2] (Homo sapiens) was over 3000 nM each time.

As to `CC(=O)N1CC[C@H]2CC[C@@H](C(=O)N(C)c3ccc4nnccc4c3)N2C(=O)[C@@H](NC(=O)c2cc3cc(C(F)(F)P(=O)(OCOC(=O)C(C)(C)C)OCOC(=O)C(C)(C)C)ccc3s2)C1` [Compound 290, ((((2-(((5S,8S, 10aR)-3-acetyl-8-(cinnolin-6-yl(methyl)carbamoyl)-6-oxodecahydro-pyrrolo[1,2-a][1,5]diazocin-5-yl)carbamoyl)benzo[b]thiophen-5-yl)difluoro-methyl)phos-phoryl)bis(oxy)) bis(methylene) bis(2,2-dimethylpro-panoate)], the 50% inhibitory concentration (IC50) in experiment [1] (Homo sapiens) lay in the range of 1000 to 3000 nM; in experiment [2] (Homo sapiens), 100 to 1000 nM.

On to `CC(=O)N1CC[C@H]2CC[C@@H](C(=O)N(C)c3ccccc3)N2C(=O)[C@@H](NC(=O)c2cc3cc(C(F)(F)P(=O)(OCCSC(=O)C(C)(C)C)OCCSC(=O)C(C)(C)C)ccc3s2)C1` [Compound 291, S,S′-(((((2-(((5S,8S, 10aR)-3-acetyl-8-(methyl (phenyl)carbamoyl)-6-oxodecahydro-pyrrolo[1,2-a][1,5]diazocin-5-yl)carbamoyl)benzo[b]thiophen-5-yl)difluoro-methyl)phos-phoryl)bis(oxy))bis(ethane-2,1-diyl)) bis(2,2-dimethylpro-panethioate)], for which the IC50 in experiment [1] (Homo sapiens) and in experiment [2] (Homo sapiens) was over 3000 nM in each case.

Regarding `CCCN(CCC)C(=O)OCOP(=O)(OCOC(=O)N(CCC)CCC)C(F)(F)c1ccc2sc(C(=O)N[C@@H]3CN(C(C)=O)CC[C@@H]4CC[C@H](C(=O)N(C)c5ccccc5)N4C3=O)cc2c1` [Compound 292, ((((2-(((5R,8R, 10aS)-3-acetyl-8-(methyl (phenyl)carbamoyl)-6-oxodecahydro-pyrrolo[1,2-a][1,5]diazocin-5-yl)carbamoyl)benzo[b]thiophen-5-yl)difluoro-methyl)phos-phoryl)bis(oxy)) bis(methylene) bis(dipropyl-carbamate)], the IC50 in experiment [1] (Homo sapiens) and in experiment [2] (Homo sapiens) was over 3000 nM each time.

(Values after patent publication US20250179103A1, “6-OXODECAHYDROPYRROLO[1,2-A][1,5]DIAZOCINE AND 6-OXODECAHYDRO-4H-PYRROLO[2,1-D][1,5]THIAZOCINE DERIVATIVES AS STAT3 AND STAT6 MODULATORS FOR THE TREATMENT OF CANCER AND INFLAMMATORY CONDITIONS” (Recludix Pharma, Inc., priority 2022, published 2025).)
